This assay deals with Tyrosine-protein kinase BTK (Homo sapiens, UniProt Q06187). As to the kind of experiment: Biochemical Assay: A generalized procedure for a standard biochemical Btk Kinase Assay that can be used to test Formula I compounds. Alternatively, the Lanthascreen assay can be used to evaluate Btk activity through quantification of its phosphorylated peptide product. The FRET (Fluorescence Resonance Energy Transfer) that occurs between the fluorescein on the peptide product and the terbium on …. A general note: Time-resolved FRET reads energy transfer from a long-lived donor to a nearby acceptor.
Tyrosine-protein kinase BTK, sequence (Q06187 whole entry): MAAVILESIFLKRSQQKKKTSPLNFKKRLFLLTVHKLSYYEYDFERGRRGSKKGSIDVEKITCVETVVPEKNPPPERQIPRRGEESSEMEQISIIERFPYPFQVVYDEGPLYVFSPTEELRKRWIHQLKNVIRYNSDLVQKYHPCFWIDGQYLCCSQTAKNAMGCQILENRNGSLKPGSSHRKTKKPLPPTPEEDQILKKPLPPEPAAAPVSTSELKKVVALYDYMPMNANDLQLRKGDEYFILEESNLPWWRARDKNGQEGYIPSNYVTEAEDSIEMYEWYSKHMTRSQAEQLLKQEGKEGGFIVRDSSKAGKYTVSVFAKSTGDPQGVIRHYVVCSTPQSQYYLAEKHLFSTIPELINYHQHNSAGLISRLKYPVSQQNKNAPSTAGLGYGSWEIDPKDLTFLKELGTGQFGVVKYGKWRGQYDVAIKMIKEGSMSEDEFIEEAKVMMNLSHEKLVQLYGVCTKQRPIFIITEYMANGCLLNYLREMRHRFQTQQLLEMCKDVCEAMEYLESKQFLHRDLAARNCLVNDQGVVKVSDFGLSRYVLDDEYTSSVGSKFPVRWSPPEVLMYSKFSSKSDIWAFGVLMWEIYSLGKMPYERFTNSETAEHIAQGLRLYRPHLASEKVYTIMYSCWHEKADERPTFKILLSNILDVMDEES

The IC50 is the concentration that inhibits the measured activity by half. A low value points to greater potency in that assay. In turn, `Cn1cc(-c2cccc(N3CCn4c(cc5c4CC(C)(C)C5)C3=O)c2CO)cc(Nc2ccc(N3CCN(C4COC4)CC3)cn2)c1=O` gave an IC50 of 5.2 nM.

Source of the values: ChEMBL document CHEMBL3639120, “Pyridone and aza-pyridone compounds and methods of use” (2013).
